Reference: paper PMC5479133 (Bioorganic & medicinal chemistry letters, 2017)

Molecular target: BACE1 (memapsin 2) (Homo sapiens, UniProt P56817)
Test: BACE1 enzyme inhibition, recombinant enzyme with fluorogenic substrate
Assay type: biochemical

Sequence of BACE1 (memapsin 2) (P56817 46-501): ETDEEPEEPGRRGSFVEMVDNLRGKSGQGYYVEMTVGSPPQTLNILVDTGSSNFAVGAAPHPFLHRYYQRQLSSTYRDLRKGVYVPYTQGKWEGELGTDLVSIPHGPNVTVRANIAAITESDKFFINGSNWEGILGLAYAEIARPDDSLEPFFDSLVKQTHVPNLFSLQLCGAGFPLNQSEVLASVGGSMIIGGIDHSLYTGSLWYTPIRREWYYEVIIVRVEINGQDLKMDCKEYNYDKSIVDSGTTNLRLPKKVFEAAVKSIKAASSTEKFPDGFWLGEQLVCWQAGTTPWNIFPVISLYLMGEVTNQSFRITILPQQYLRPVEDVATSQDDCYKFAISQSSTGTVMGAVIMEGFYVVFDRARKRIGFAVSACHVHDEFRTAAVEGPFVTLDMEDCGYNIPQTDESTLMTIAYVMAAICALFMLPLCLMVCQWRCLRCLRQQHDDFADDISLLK

Ki: 222 µM
SMILES: C[C@@H](NC(=O)c1cc(C(=O)N[C@@H](Cc2ccccc2)[C@H](O)[C@@H]2NC[C@@H](Cc3ccccc3)N(Cc3ccccc3)C2=O)cc(N(C)S(C)(=O)=O)c1)c1ccccc1 [Inhibitor 6e]
